Measurements published in patent US20240245736A1, “COMPOSITIONS AND METHODS FOR REDUCING BLOOD ALCOHOL CONTENT” (LIFE WELL LIVED, LLC, priority 2012, published 2024).

Test: BAC scores by breathalyzer and observed behavior in subjects who had voluntarily consumed alcohol, compared with projected BAC
Format: in vivo, human
Set-up: actual BAC score / actual BAC: unit not given here
Settings: for signs of intoxication: twenty minutes after administration; for effect on the subject's BAC score, summary of the experiments: actual vs projected BAC over the course of the experiment; for change in BAC twenty minutes after administration: summary over subjects
Text: The following experiments involved subjects who voluntarily consumed alcoholic beverages. The subjects chose the type and amount of alcohol that was consumed, as well as the rate at which the alcohol was consumed. At the point when the subjects started to feel effects of their alcohol consumption and chose to stop consuming alcohol, the subjects voluntarily consumed a composition that contained a source of NAD+, Lactobacillus, Bifidobacterium, or a combination of two or more of those ingredients. Projected BAC scores were calculated approximately every twenty minutes using an online BAC calculator provided by the Wisconsin Department of Transportation, which provides a projected BAC based on factors such as the subject's weight, sex, alcohol consumed, rate of alcohol consumed, and food consumed. BAC scores were also quantitatively measured approximately every twenty minutes using a breathalyzer. The projected BAC score served as a negative control because it estimates the change in BAC that is expected to occur over time after a subject stops consuming alcohol. Changes in each subject's behavior were also observed over the course of the experiment.
The ingredients that were administered to the subjects are commercially available and sold for human consumption. In the following experiments, NAD+ was provided by administering 5 mL of Liquid CoQ10, which is made by NOW Foods and contains 5 mg NAD+ in the 5 mL dose. To administer Lactobacillus, the subjects were given two Culturelle® Health & Wellness capsules, each of which contains Lactobacillus GG (10 billion cells). To administer Bifidobacterium, subjects were given two capsules of Align® Bifantis® Bifidobacterium infantis 35624, which contain 1 billion cfu per capsule. To administer Lactobacillus and Bifidobacterium, subjects were given 1-2 capsules of Dr. Mercola's® Complete Probiotics capsules, each of which contains 35 billion cells including the following species: Lactobacillus acidophilus DDS-1, Lactobacillus casei, Lactobacillus plantarum, Lactobacillus salivarius, Lactobacillus rhamnosus, Lactobacillus brevis, Bifidobacterium lactis, Bifidobacterium longum, Bifidobacterium bifidum, and Streptococcus thermophilus. Subjects were also given 5 mg of zinc, which was provided in liquid form.

NC(=O)c1ccc[n+]([C@@H]2O[C@H](COP(=O)([O-])OP(=O)(O)OC[C@H]3O[C@@H](n4cnc5c(N)ncnc54)[C@H](O)[C@@H]3O)[C@@H](O)[C@H]2O)c1 [NAD+, nicotinamide adenine dinucleotide, reference compound]
actual BAC score (FIG. 1, person, 198 pounds, beer and wine, 11:12, twenty minutes after administration, BAC at administration 0.089, projected 0.084): 0.082
effect on the subject's BAC score, actual vs projected (FIG. 1 subject): no effect
signs of intoxication (FIG. 1 subject): continued to exhibit signs of intoxication
actual BAC score (FIG. 2, person, 188 pounds, beer, 11:12, twenty minutes after administration, BAC at administration 0.085, projected 0.085): 0.086
effect on the subject's BAC score, actual vs projected (FIG. 2 subject): minimal or no effect
signs of intoxication (FIG. 2 subject): continued to exhibit signs of intoxication
actual BAC score (FIG. 3, person, 169 pounds, beer and vodka, 11:12, twenty minutes after administration, BAC at administration 0.086, projected 0.087): 0.086
effect on the subject's BAC score, actual vs projected (FIG. 3 subject): little effect
signs of intoxication (FIG. 3 subject): continued to exhibit signs of intoxication
actual BAC (FIG. 9, person, 182 pounds, beer and vodka, 11:32, 40 minutes after NAD+ at 10:52 (BAC 0.088), before Lactobacillus and Bifidobacterium): 0.056
effect on the subject's BAC score, summary of the experiments: no effect or only a minimal effect
change in BAC twenty minutes after administration: increase in BAC

Lactobacillus
actual BAC score (FIG. 4, person, 122 pounds, wine and vodka, 7:25, twenty minutes after administration, BAC at administration 0.086, projected 0.084): 0.082
effect on the subject's BAC score, actual vs projected (FIG. 4 subject): no effect
signs of intoxication (FIG. 4 subject): continued to exhibit signs of intoxication
actual BAC score (FIG. 5, person, 155 pounds, beer and wine, 7:25, twenty minutes after administration, BAC at administration 0.13, projected 0.129): 0.12
effect on the subject's BAC score, actual vs projected (FIG. 5 subject): little effect
actual BAC score (FIG. 6, person, 169 pounds, beer and vodka, 7:25, twenty minutes after administration, BAC at administration 0.086, projected 0.074): 0.067
effect on the subject's BAC score, actual vs projected (FIG. 6 subject): little effect
effect on the subject's BAC score, summary of the experiments: no effect or only a minimal effect
change in BAC twenty minutes after administration: increase in BAC

Bifidobacterium
actual BAC (FIG. 7, person, 146 pounds, wine, 1:20, twenty minutes after administration, BAC at administration 0.159, projected 0.157): 0.151
effect on the subject's BAC score, actual vs projected (FIG. 7 subject): little effect
actual BAC (FIG. 8, person, 171 pounds, 12:40, twenty minutes after administration, BAC at administration 0.13, projected 0.132): 0.125
effect on the subject's BAC score, actual vs projected (FIG. 8 subject): little effect
effect on the subject's BAC score, summary of the experiments: no effect or only a minimal effect
change in BAC twenty minutes after administration: increase in BAC
